ChEMBL document CHEMBL1141752, “Koniamborine, the first pyrano[3,2-b]indole alkaloid and other secondary metabolites from Boronella koniambiensis” (J Nat Prod, 2005)

Test system: L1210
Experiment: Cytotoxicity against mouse L1210 cells
Format: functional, cell-based

SMILES: CC(C)=CCC/C(C)=C/COc1ccc2ccc(=O)oc2c1CC=C(C)C
- IC50: 15.7 µM

SMILES: c1cc2c(cc1CC1COCC1Cc1ccc3c(c1)OCO3)OCO2 (stereo not drawn)
- IC50: 72.1 µM

SMILES: COc1ccc2c3occc(=O)c3n(C)c2c1 [KONIAMBORINE]
- IC50: 38.2 µM
